Here are results for 8 compounds from patent US12115156B2, “Compositions of CXCR4 inhibitors and methods of preparation and use” (X4 Pharmaceuticals, Inc., priority 2018, dated 2024).

Data set [1] can be described thus: Persistence of the imine impurity HPLC-MS peak in acidic aqueous media. Format: physicochemical. The following applies: X4P-001 solubilized in acidic aqueous media. The text has this:
The imine impurity, I-1, and likely route of formation are shown in Scheme 1, below.

The nature of data set [2]: Mutagenic Risk Assessment in accordance with ICH M7(R1). To be noted: impurities in the synthetic process for X4P-001. The protocol: The assessment included review of all raw materials, including key starting materials, as well as the potential and actual process impurities and degradation products. All assessments were carried out in accordance with ICH M7(R1) guidance.

A short description of data set [3]: in vivo. The following applies: terminal half-life.
For data set [4] the following is noted: in vivo.
Data set [5] has as its system advanced clear-cell renal cell carcinoma. To be noted: cited from earlier work; for objective response rate: nivolumab 3 mg/kg intravenously every two weeks or everolimus 10 mg tablet orally daily, previously treated patients, P<0.001.
[6] abbreviates: nivolumab compared to everolimus.

Regarding `C=NCCCCN(Cc1nc2ccccc2[nH]1)[C@H]1CCCc2cccnc21` [I-1, (S)-N-((1H-benzo[d]imidazol-2-yl)methyl)-N-(4-(methyleneamino)butyl)-5,6,7,8-tetrahydroquinolin-8-amine], the “stability of the impurity peak (RRT 1.13)” value in data set [1] is “disappears after a few hours”.
As for `ClCc1nc2ccccc2[nH]1` [I-8, 2-chloromethylbenzimidazole], the mutagenicity assessment entry in data set [2] is reported as “potentially mutagenic”.
`CC(C)(C)OC(=O)n1c(CCl)nc2ccccc21` [I-9, boc-2-chloromethylbenzimidazole]: the mutagenicity assessment entry in data set [2] is “potentially mutagenic”.
With `ICc1nc2ccccc2[nH]1` [I-10], the mutagenicity assessment entry in data set [2] was “potentially mutagenic”.
On the same count and under the same terms, to `CC(C)(C)OC(=O)n1c(CI)nc2ccccc21` [I-11] belongs “potentially mutagenic”.
In the case of `NCCCCN(Cc1nc2ccccc2[nH]1)[C@H]1CCCc2cccnc21` [X4P-001], the half-life in data set [3] was in the range of 12 to 24 h. Further, the terminal half-life result in data set [4] is listed as “approximately 14.5 hrs”.
For `CO[C@H]1C[C@@H]2CC[C@@H](C)[C@@](O)(O2)C(=O)C(=O)N2CCCC[C@H]2C(=O)O[C@H]([C@H](C)C[C@@H]2CC[C@@H](OCCO)[C@H](OC)C2)CC(=O)[C@H](C)/C=C(\C)[C@@H](O)[C@@H](OC)C(=O)[C@H](C)C[C@H](C)/C=C/C=C/C=C/1C` [everolimus], the objective response rate in data set [5] is recorded as 5%.
For the compound “nivolumab: fully human IgG4 monoclonal antibody binding to the programmed cell death 1 (PD-1) receptor”, the objective response rate in data set [5] is listed as 25%. For the same compound, in data set [5] (setting [6]), the “hazard ratio for death” value is recorded as “decreased”, the “incidence of Grade 3 or 4 treatment-related adverse events” value is “lower” and the median overall survival result was “longer”.

One may read the half-life as how long it takes for the measured level to halve. The low end stands for rapid decline, the high end for slow decline.
